Calls of active or inactive are those of the source. The calls are words filed in the database; no cut-off is given here.
Tests used:
CHO [1] = test: Cytoprotective activity against diphtheria toxin-induced cell death in CHO cells assessed as cell viability at 10 uM by MTT reduction assay; type: functional; details: Cricetulus griseus, read-out: Activity
CHO [2] = test: Cytoprotective activity against anthrax fusion toxin FP59-induced cell death in CHO cells assessed as cell viability by MTT reduction assay; type: functional, cell-based; details: Cricetulus griseus
RAW264.7 [3] = test: Cytoprotective activity against anthrax toxin lethal factor/protective antigen-induced cell death in mouse RAW264.7 cells assessed as cell viability at 10 uM by MTT reduction assay; type: functional, cell-based
RAW264.7 [4] = test: Cytoprotective activity against anthrax toxin lethal factor-induced cell death in mouse RAW264.7 cells assessed as cell viability at 3 uM by MTT reduction assay; type: functional, cell-based
CHO [5] = test: Cytoprotective activity against diphtheria toxin-induced cell death in CHO cells assessed as cell viability at 5 uM by MTT reduction assay; type: functional; details: Cricetulus griseus, read-out: Activity
RAW264.7 [6] = test: Cytoprotective activity against anthrax lethal toxin-induced cell death in mouse RAW264.7 cells assessed as cell viability at 2 uM preincubated for 45 mins with lethal toxin measured after 1 hr by MTT reduction assay; type: functional, cell-based
RAW264.7 [7] = test: Cytotoxicity against mouse RAW264.7 cells at 10 uM by MTT assay; type: cell-based; details: raw264.7, 10 µM
[8] = biological target: Replicase polyprotein 1ab (Severe acute respiratory syndrome-related coronavirus, UniProt P0C6X7); test: Inhibition of SARS Co-V 3CL protease

Structure (SMILES): Cc1ccc2oc(=O)c3cnn(CC(=O)Nc4ccccc4N4CCN(C)CC4)c3c2c1
- viability at 10 µM (CHO [1]): 75%
- Activity (CHO [2]): Active
- Activity (RAW264.7 [3]): Active

Structure (SMILES): Cc1ccnc(-n2sc3ccccc3c2=O)n1
- Activity (RAW264.7 [3]): inactive

Structure (SMILES): N=C1Sc2ccccc2C2=NCCCN12
- Activity (RAW264.7 [3]): inactive

Structure (SMILES): COc1cc2c(O)c3c(c(-c4ccc5c(c4)OCO5)c2cc1OC)C(=O)OC3 [DIPHYLLIN]
- Activity (RAW264.7 [4]): Active
- viability at 5 µM (CHO [5]): 100%
- Activity (CHO [2]): Active
- Activity (RAW264.7 [6]): Active

Structure (SMILES): CN(C)CCCn1cc(C2=C(c3c[nH]c4ccccc34)C(=O)NC2=O)c2ccccc21 [GF-109203]
- viability at 10 µM (CHO [1]): 60%
- Activity (RAW264.7 [7]): Toxic

Structure (SMILES): O=C(Nc1ccc([N+](=O)[O-])cc1Cl)c1cc(Cl)ccc1O [NICLOSAMIDE]
- viability at 5 µM (CHO [5]): 100%
- Activity (CHO [2]): Active
- IC50 [8]: 40 µM
- Activity (RAW264.7 [3]): Active

— ChEMBL document CHEMBL1152503, “Quantitative high-throughput screening identifies inhibitors of anthrax-induced cell death” (Bioorg Med Chem, 2009)
